Laboratory results reported in US20180030500A1, “ENRICHMENT AND SELECTIVE CULTURE OF MYCOBACTERIA” (priority 2015, published 2018).
Read-outs that look alike come from different tables or passages of the source.

Key:
[1] = system: Pseudomonas aeruginosa; conditions: 50 strains, 7 days
[2] = system: Gram-positive bacteria; conditions: 10 strains, 7 days
[3] = system: Burkholderia multivorans (LMG 18822); assay: Sensitivity to C-390 in medium W; format: cell-based; parameters: key: NG: no growth; Tr: traces
Protocol: (§1) An evaluation of the sensitivity to C-390 of various microorganisms capable of infecting the airways was carried out. This evaluation was carried out using medium W of example 4, containing a variable concentration of C-390. Table 10 below collates the observations collected with regard to the intensity of growth of the strains tested as a function of the C-390 concentration of the medium. The abbreviations NG (“no growth”) and Tr (“traces”) signify that no growth was observed or only a few not very significant traces.

[4] = system: Scedosporium apiospermum (Anon); assay: Sensitivity to C-390 in medium W; format: cell-based; parameters: key: NG: no growth; Tr: traces
Protocol: as §1

[5] = system: Burkholderia anthina (20983); assay: Sensitivity to C-390 in medium W; format: cell-based; parameters: key: NG: no growth; Tr: traces
Protocol: as §1

[6] = system: Burkholderia gladioli (ENV); assay: Sensitivity to C-390 in medium W; format: cell-based; parameters: key: NG: no growth; Tr: traces
Protocol: as §1

[7] = system: Burkholderia cenocepacia (672834P); assay: Sensitivity to C-390 in medium W; format: cell-based; parameters: key: NG: no growth; Tr: traces
Protocol: as §1

[8] = system: Burkholderia vietnamiensis (LMG 18835); assay: Sensitivity to C-390 in medium W; format: cell-based; parameters: key: NG: no growth; Tr: traces
Protocol: as §1

[9] = system: Burkholderia cepacia (LMG 18821); assay: Sensitivity to C-390 in medium W; format: cell-based; parameters: key: NG: no growth; Tr: traces
Protocol: as §1

[10] = system: Aspergillus flavus (ENV); assay: Sensitivity to C-390 in medium W; format: cell-based; parameters: key: NG: no growth; Tr: traces
Protocol: as §1

[11] = system: Scedosporium prolificans (Anon); assay: Sensitivity to C-390 in medium W; format: cell-based; parameters: key: NG: no growth; Tr: traces
Protocol: as §1

[12] = system: Aspergillus fumigatus (Anon); assay: Sensitivity to C-390 in medium W; format: cell-based; parameters: key: NG: no growth; Tr: traces
Protocol: as §1

[13] = selective agent 32 mg/l in medium L
[14] = selective agent 64 mg/l in medium L
[15] = selective agent 128 mg/l in medium L

Structure (SMILES): CCN(CC)c1ccc(C2(Cl)c3ccccc3N(c3ccccc3)c3ccccc32)cc1 [Medium C-390, 9-chloro-9-(4′-diethylamino)phenyl-9,10-dihydro-10-phenylacridine]
- Number of strains having shown growth [1, 13]: 46
- Percentage of strains having shown growth [1, 13]: (92%)
- Number of strains having shown growth [1, 14]: 45
- Percentage of strains having shown growth [1, 14]: (90%)
- Number of strains having shown growth [1, 15]: 35
- Percentage of strains having shown growth [1, 15]: (70%)
- Number of strains having shown growth [2, 13]: 0
- Number of strains having shown growth [2, 14]: 0
- Number of strains having shown growth [2, 15]: 0
- intensity of growth ([3]; C-390 4 mg/l in medium W): NG
- intensity of growth ([3]; C-390 8 mg/l in medium W): NG
- intensity of growth ([3]; C-390 16 mg/l in medium W): NG
- intensity of growth ([3]; C-390 32 mg/l in medium W): NG
- intensity of growth ([4]; C-390 2 mg/l in medium W): NG
- intensity of growth ([4]; C-390 4 mg/l in medium W): NG
- intensity of growth ([4]; C-390 8 mg/l in medium W): NG
- intensity of growth ([4]; C-390 16 mg/l in medium W): NG
- intensity of growth ([4]; C-390 32 mg/l in medium W): NG
- intensity of growth ([5]; C-390 1 mg/l in medium W): Tr
- intensity of growth ([5]; C-390 2 mg/l in medium W): NG
- intensity of growth ([5]; C-390 4 mg/l in medium W): NG
- intensity of growth ([5]; C-390 8 mg/l in medium W): NG
- intensity of growth ([5]; C-390 16 mg/l in medium W): NG
- intensity of growth ([5]; C-390 32 mg/l in medium W): NG
- intensity of growth ([6]; C-390 16 mg/l in medium W): NG
- intensity of growth ([6]; C-390 32 mg/l in medium W): NG
- intensity of growth ([7]; C-390 8 mg/l in medium W): NG
- intensity of growth ([7]; C-390 16 mg/l in medium W): NG
- intensity of growth ([7]; C-390 32 mg/l in medium W): NG
- intensity of growth ([8]; C-390 1 mg/l in medium W): NG
- intensity of growth ([8]; C-390 2 mg/l in medium W): NG
- intensity of growth ([8]; C-390 4 mg/l in medium W): NG
- intensity of growth ([8]; C-390 8 mg/l in medium W): NG
- intensity of growth ([8]; C-390 16 mg/l in medium W): NG
- intensity of growth ([8]; C-390 32 mg/l in medium W): NG
- intensity of growth ([9]; C-390 16 mg/l in medium W): NG
- intensity of growth ([9]; C-390 32 mg/l in medium W): NG
- intensity of growth ([10]; C-390 8 mg/l in medium W): NG
- intensity of growth ([10]; C-390 16 mg/l in medium W): NG
- intensity of growth ([10]; C-390 32 mg/l in medium W): NG
- intensity of growth ([11]; C-390 0.5 mg/l in medium W): NG
- intensity of growth ([11]; C-390 1 mg/l in medium W): NG
- intensity of growth ([11]; C-390 2 mg/l in medium W): NG
- intensity of growth ([11]; C-390 4 mg/l in medium W): NG
- intensity of growth ([11]; C-390 8 mg/l in medium W): NG
- intensity of growth ([11]; C-390 16 mg/l in medium W): NG
- intensity of growth ([11]; C-390 32 mg/l in medium W): NG
- intensity of growth ([12]; C-390 0.5 mg/l in medium W): Tr
- intensity of growth ([12]; C-390 1 mg/l in medium W): NG
- intensity of growth ([12]; C-390 2 mg/l in medium W): NG
- intensity of growth ([12]; C-390 4 mg/l in medium W): NG
- intensity of growth ([12]; C-390 8 mg/l in medium W): NG
- intensity of growth ([12]; C-390 16 mg/l in medium W): NG
- intensity of growth ([12]; C-390 32 mg/l in medium W): NG
